These results are taken from US9796711B2, “Substituted pyrazolo[3,4-b]pyridin-6-carboxylic acids and method of use” (AbbVie S.àr.l., priority 2015, dated 2017).

SMILES strings stand for the structures. Where only a bound is given, the exact number is not on record here.

The target in assay [1] is T1, ΔF508-CFTR (Homo sapiens, UniProt P13569, DEL508-508).
T1 construct: host or cells: CFBE41o-, doxycycline-inducible
Put plainly: CFTR cell surface levels using HRP-tagged ΔF508-CFTR expressing CFBE cells, intrinsic corrector capacity. It is filed as cell-based. As to conditions: HRP-tagged ΔF508-CFTR CFBE41o- cells, compounds alone (intrinsic corrector capacity), 20 hours at 33° C.; for % Activation: positive control 3 μM corrector; for EC50: read-out: EC50. The source says:
Measuring CFTR Cell Surface Levels Using HRP-Tagged AF508-CFTR Expressing CFBE Cells
The HRP-tagged AF508-CFTR cell assay measures the expression of CFTR-ΔF508 at the plasma membrane. CFTR-ΔF508 has a folding defect leading to absence of protein at the plasma membrane. This assay is used to evaluate the capacity of compounds to increase the expression of CFTR-ΔF508 at the plasma membrane. The CFTR-ΔF508 is tagged with HRP (horse radish peroxidase enzyme) within the ECL4 (Extracellular loop 4) of CFTR (Phuan, P.-W. et al. Synergy-based small-molecule screen using a human lung epithelial cell line yields AF508-CFTR correctors that augment VX-809 maximal efficacy. Mol. Pharmacol. 86, 42-51 (2014)). When HRP-tagged AF508-CFTR is present at the plasma membrane, the HRP enzyme activity can be measured. The amount of CFTR-ΔF508 that can be rescued to the plasma membrane is correlated with the amount of functional enzyme that can be measured.
There are several ways to measure the capacity of compounds to rescue CFTR-ΔF508 to the plasma membrane; either compounds are evaluated on their own and the impact on plasma membrane levels is measured or compounds are evaluated in combination with a co-corrector, i.e. a compound that rescues CFTR-ΔF508 to the plasma membrane but rescue can be enhanced by addition of compounds due to a complementary mode of action.
Activity of Compounds for their Intrinsic Corrector Capacity:
For this purpose doxycycline-inducible AF508-CFTR-HRP expressing CFBE4lo-cells (obtained from Gergely Lukacs, McGill University) were maintained in MEM (Gibco; 31095) supplemented with 10% fetal bovine serum (Hyclone; SV30160.03) under puromycin (3 μg/mL) and G418 selection (0.2 mg/mL). For compound testing, cells were seeded at 4000 cells/well in white 384-well plates (Greiner; 781080) in 50 μL medium containing 0.5 μg/mL doxycycline and incubated for 68 hours at 37° C., 5% CO2. On day four, 10 μL test compounds diluted in PBS were added to the plates at a final DMSO concentration of 0.1%. All compound plates contained negative controls (DMSO) and positive controls (3 μM corrector, 3-[(2R,4R)-4-({[1-(2,2-difluoro-1,3-benzodioxol-5-yl)cyclopropyl]carbonyl}amino)-7-methoxy-3,4-dihydro-2H-chromen-2-yl]benzoic acid). Cell plates were incubated at 33° C., 5% CO2 for 20 hours. On day five, the cells were washed five times with phosphate-buffered saline, and HRP activity was assayed by the addition of 50 μL/well of HRP substrate (SuperSignal™ West Pico Chemiluminescent Substrate, Thermo Scientific; 34080). After incubation for 15 minutes in the dark, chemiluminescence was measured using a plate reader (EnVision®, Perkin Elmer). Raw data were normalized to percentage activity values using the equation: 100×(Sample−Negative control)/(Positive control−Negative Control).

For assay [2], the target named is T1, ΔF508-CFTR. Put plainly: CFTR cell surface levels using HRP-tagged ΔF508-CFTR expressing CFBE cells, in the presence of a co-corrector. As to conditions: HRP-tagged ΔF508-CFTR expressing CFBE cells, in the presence of 3 μM co-corrector; for EC50: read-out: EC50. It counts as cell-based. The essentials: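 Cells were seeded with 0.5 μg/mL doxycycline and held 68 h at 37 °C. Test compounds plus 3 μM co-corrector (final 0.1% DMSO) were then added for 20 h at 33 °C. Washed cells received HRP substrate, and luminescence was normalized between DMSO and 3 μM co-corrector controls.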

T1 sequence (P13569 with tags, fused parts or gaps DEL508-508): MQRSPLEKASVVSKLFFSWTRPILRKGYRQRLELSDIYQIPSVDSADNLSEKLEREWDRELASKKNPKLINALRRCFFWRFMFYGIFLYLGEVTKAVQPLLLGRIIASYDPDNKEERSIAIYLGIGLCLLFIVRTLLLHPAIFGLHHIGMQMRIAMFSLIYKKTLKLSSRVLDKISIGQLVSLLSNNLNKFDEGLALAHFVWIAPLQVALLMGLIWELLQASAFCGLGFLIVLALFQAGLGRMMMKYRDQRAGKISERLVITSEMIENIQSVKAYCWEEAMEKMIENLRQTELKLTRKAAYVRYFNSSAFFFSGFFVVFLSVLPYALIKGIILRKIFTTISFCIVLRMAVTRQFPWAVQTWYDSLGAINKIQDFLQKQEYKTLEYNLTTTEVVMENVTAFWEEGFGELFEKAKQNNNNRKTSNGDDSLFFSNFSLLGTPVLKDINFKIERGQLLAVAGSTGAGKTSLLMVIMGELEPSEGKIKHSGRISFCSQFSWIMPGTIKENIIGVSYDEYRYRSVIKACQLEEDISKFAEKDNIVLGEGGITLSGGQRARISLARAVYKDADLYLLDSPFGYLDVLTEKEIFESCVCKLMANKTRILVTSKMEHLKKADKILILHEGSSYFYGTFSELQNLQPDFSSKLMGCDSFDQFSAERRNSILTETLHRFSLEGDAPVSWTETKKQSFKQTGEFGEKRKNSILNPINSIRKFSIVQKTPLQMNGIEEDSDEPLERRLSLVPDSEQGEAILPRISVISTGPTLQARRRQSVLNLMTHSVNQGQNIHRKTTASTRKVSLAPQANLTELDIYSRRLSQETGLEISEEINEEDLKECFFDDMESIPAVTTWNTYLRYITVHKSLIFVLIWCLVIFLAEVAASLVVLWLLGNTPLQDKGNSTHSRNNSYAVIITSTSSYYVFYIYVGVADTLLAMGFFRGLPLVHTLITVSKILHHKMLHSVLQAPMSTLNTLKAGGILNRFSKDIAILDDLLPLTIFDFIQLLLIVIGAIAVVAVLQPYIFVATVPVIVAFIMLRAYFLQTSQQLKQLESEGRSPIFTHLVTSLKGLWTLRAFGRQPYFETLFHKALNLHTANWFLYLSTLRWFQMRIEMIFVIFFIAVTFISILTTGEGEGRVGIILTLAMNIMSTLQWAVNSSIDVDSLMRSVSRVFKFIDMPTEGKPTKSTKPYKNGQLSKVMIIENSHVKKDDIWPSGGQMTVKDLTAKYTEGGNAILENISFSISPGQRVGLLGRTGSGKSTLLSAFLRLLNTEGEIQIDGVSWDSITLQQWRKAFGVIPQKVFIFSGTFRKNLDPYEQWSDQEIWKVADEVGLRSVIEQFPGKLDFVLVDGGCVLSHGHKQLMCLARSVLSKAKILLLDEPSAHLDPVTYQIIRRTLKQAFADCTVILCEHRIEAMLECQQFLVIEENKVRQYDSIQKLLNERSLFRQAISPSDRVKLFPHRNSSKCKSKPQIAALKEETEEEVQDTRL

Consider `COc1cc(N2CCOCC2)ccc1-c1cc(C(=O)O)nc2c1c(C)nn2-c1ccccc1` [compound 33, 4-[2-methoxy-4-(morpholin-4-yl)phenyl]-3-methyl-1-phenyl-1H-pyrazolo[3,4-b]pyridine-6-carboxylic acid], for which, on ΔF508-CFTR [1], the “% Activation” value is listed as 90.265% and the half-maximal effective concentration (EC50) was 1530 nM.
As for `Cc1nn(-c2ccccc2)c2nc(C(=O)O)cc(-c3ccc(N4CCCC4)cc3)c12` [compound 25, 3-methyl-1-phenyl-4-[4-(pyrrolidin-1-yl)phenyl]-1H-pyrazolo[3,4-b]pyridine-6-carboxylic acid], at ΔF508-CFTR [1], the “% Activation” value worked out at 93.1% and the EC50 came to 1500 nM.
Take `Cc1nn(-c2cccc(C(N)=O)c2)c2nc(C(=O)O)cc(-c3ccc(N4CCOCC4)cc3)c12` [compound 59, 1-(3-carbamoylphenyl)-3-methyl-4-[4-(morpholin-4-yl)phenyl]-1H-pyrazolo[3,4-b]pyridine-6-carboxylic acid]: at ΔF508-CFTR [1], the “% Activation” value worked out at 13.69% and the EC50 is over 10000 nM.
On the same counts, the results for `Cc1nn(-c2ccccc2)c2nc(C(=O)O)cc(-c3ccc(N4CCN(C)CC4)cc3)c12` [compound 9, 3-methyl-4-[4-(4-methylpiperazin-1-yl)phenyl]-1-phenyl-1H-pyrazolo[3,4-b]pyridine-6-carboxylic acid] are 31.76% and 3340 nM.
Take `C=C(C)c1nn(-c2ccccc2)c2nc(C(=O)O)cc(-c3ccc(N4CCOCC4)cc3)c12` [compound 48, 4-[4-(morpholin-4-yl)phenyl]-1-phenyl-3-(prop-1-en-2-yl)-1H-pyrazolo[3,4-b]pyridine-6-carboxylic acid]: at ΔF508-CFTR [1], the “% Activation” value turned out to be 163.7% and the EC50 was found to be 989 nM.
For `Cc1nn(-c2cccc(S(C)(=O)=O)c2)c2nc(C(=O)O)cc(-c3ccc(N4CCOCC4)cc3)c12` [compound 38, 1-[3-(methanesulfonyl)phenyl]-3-methyl-4-[4-(morpholin-4-yl)phenyl]-1H-pyrazolo[3,4-b]pyridine-6-carboxylic acid], at ΔF508-CFTR [1], the “% Activation” value worked out at 23.86% and the EC50 was over 10000 nM.
As to `Cc1cc(C)cc(-n2nc(C)c3c(-c4ccc(N5CCOCC5)cc4)cc(C(=O)O)nc32)c1` [compound 30, 1-(3,5-dimethylphenyl)-3-methyl-4-[4-(morpholin-4-yl)phenyl]-1H-pyrazolo[3,4-b]pyridine-6-carboxylic acid], at ΔF508-CFTR [1], the “% Activation” value came to 119.1% and the EC50 came to 1210 nM.
`Cc1nn(-c2cccc(S(N)(=O)=O)c2)c2nc(C(=O)O)cc(-c3ccc(N4CCOCC4)cc3)c12` [compound 45, 3-methyl-4-[4-(morpholin-4-yl)phenyl]-1-(3-sulfamoylphenyl)-1H-pyrazolo[3,4-b]pyridine-6-carboxylic acid]: at ΔF508-CFTR [1], the “% Activation” value was determined as 5.851% and the EC50 was over 10000 nM.
On to `CN1CCN(c2cc(C(=O)O)nc3c2c(C2CCC2)nn3-c2ccccc2)CC1` [compound 563, 3-cyclobutyl-4-(4-methylpiperazin-1-yl)-1-phenyl-1H-pyrazolo[3,4-b]pyridine-6-carboxylic acid], for which, on ΔF508-CFTR [2], the “% Activation” value was 272.97% and the EC50 turned out to be 2230 nM.
Turning to `Cc1nn(-c2ccccc2)c2nc(C(=O)O)cc(-c3ccc(N4CCC(C#N)CC4)cc3)c12` [compound 109, 4-[4-(4-cyanopiperidin-1-yl)phenyl]-3-methyl-1-phenyl-1H-pyrazolo[3,4-b]pyridine-6-carboxylic acid], at ΔF508-CFTR [2], the “% Activation” value was 398.15% and the EC50 worked out at 752 nM.
Consider `CN(C)C(=O)CN1CCN(c2cc(C(=O)O)nc3c2c(C2CCC2)nn3-c2ccccc2)CC1` [compound 559, 3-cyclobutyl-4-{4-[2-(dimethylamino)-2-oxoethyl]piperazin-1-yl}-1-phenyl-1H-pyrazolo[3,4-b]pyridine-6-carboxylic acid], for which, on ΔF508-CFTR [2], the “% Activation” value is recorded as 352.47% and the EC50 was 2050 nM.
`CC(C)c1nn(-c2ccc(F)cc2)c2nc(C(=O)O)cc(N3CC(C4CN(C)CCO4)C3)c12` (stereo not drawn) [compound 740, 1-(4-fluorophenyl)-4-[3-(4-methylmorpholin-2-yl)azetidin-1-yl]-3-(propan-2-yl)-1H-pyrazolo[3,4-b]pyridine-6-carboxylic acid]: at ΔF508-CFTR [2], the “% Activation” value came to 194.7% and the EC50 worked out at 424 nM.
For the compound `CN(CC1CCOCC1)c1cc(C(=O)O)nc2c1c(C1CCC1)nn2-c1ccccc1` [compound 554, 3-cyclobutyl-4-{methyl[(oxan-4-yl)methyl]amino}-1-phenyl-1H-pyrazolo[3,4-b]pyridine-6-carboxylic acid], on ΔF508-CFTR [2], the “% Activation” value is reported as 365.83% and the EC50 came to 1720 nM.
With `COCCOCCOc1cc(C(=O)O)nc2c1c(C1CCC1)nn2-c1ccccc1` [compound 586, 3-cyclobutyl-4-[2-(2-methoxyethoxy)ethoxy]-1-phenyl-1H-pyrazolo[3,4-b]pyridine-6-carboxylic acid], at ΔF508-CFTR [2], the “% Activation” value was found to be 322.2% and the EC50 turned out to be 2000 nM.
`CNC(=O)CN1CCN(c2cc(C(=O)O)nc3c2c(C2CCC2)nn3-c2ccccc2)CC1` [compound 569, 3-cyclobutyl-4-{4-[2-(methylamino)-2-oxoethyl]piperazin-1-yl}-1-phenyl-1H-pyrazolo[3,4-b]pyridine-6-carboxylic acid]: on ΔF508-CFTR [2], the “% Activation” value came to 259.37% and the concentration giving a half-maximal response (EC50) stood at 3060 nM.
As to `CN(C)C(=O)C1(N2CCCC2=O)CCN(c2cc(C(=O)O)nc3c2c(C2CCC2)nn3-c2ccccc2)CC1` [compound 718, 3-cyclobutyl-4-[4-(dimethylcarbamoyl)-4-(2-oxopyrrolidin-1-yl)piperidin-1-yl]-1-phenyl-1H-pyrazolo[3,4-b]pyridine-6-carboxylic acid], at ΔF508-CFTR [2], the “% Activation” value was determined as 209.8% and the EC50 stood at 1670 nM.
Regarding `CN(C)C(=O)N1CCN(c2cc(C(=O)O)nc3c2c(C2CCC2)nn3-c2ccccc2)CC1` [compound 708, 3-cyclobutyl-4-[4-(dimethylcarbamoyl)piperazin-1-yl]-1-phenyl-1H-pyrazolo[3,4-b]pyridine-6-carboxylic acid], at ΔF508-CFTR [2], the “% Activation” value is reported as 314.8% and the EC50 stood at 147 nM.
For `CN(C)[C@H]1CCN(c2cc(C(=O)O)nc3c2c(C2CCC2)nn3-c2ccccc2)C1` [compound 568, 3-cyclobutyl-4-[(3S)-3-(dimethylamino)pyrrolidin-1-yl]-1-phenyl-1H-pyrazolo[3,4-b]pyridine-6-carboxylic acid], on ΔF508-CFTR [2], the “% Activation” value was 279.9% and the EC50 is 2480 nM.
On to `CCOCCN1CCC(N2CCN(c3cc(C(=O)O)nc4c3c(C3CCC3)nn4-c3ccccc3)CC2)CC1` [compound 726, 3-cyclobutyl-4-{4-[1-(2-ethoxyethyl)piperidin-4-yl]piperazin-1-yl}-1-phenyl-1H-pyrazolo[3,4-b]pyridine-6-carboxylic acid], for which, at ΔF508-CFTR [2], the “% Activation” value was 409.6% and the EC50 worked out at 311 nM.
Regarding `O=C(O)c1cc(N2CCC(CCN3CCOCC3)CC2)c2c(C3CCC3)nn(C3CCCCC3)c2n1` [compound 807, 3-cyclobutyl-1-cyclohexyl-4-{4-[2-(morpholin-4-yl)ethyl]piperidin-1-yl}-1H-pyrazolo[3,4-b]pyridine-6-carboxylic acid], at ΔF508-CFTR [2], the “% Activation” value is 389.35% and the EC50 is 72.5 nM.
As to `O=C(O)c1cc(N2CCC(CCCN3CCCC3)CC2)c2c(C3CCC3)nn(-c3ccccc3)c2n1` [compound 733, 3-cyclobutyl-1-phenyl-4-{4-[3-(pyrrolidin-1-yl)propyl]piperidin-1-yl}-1H-pyrazolo[3,4-b]pyridine-6-carboxylic acid], on ΔF508-CFTR [2], the “% Activation” value is reported as 396.9% and the EC50 was 85.1 nM.

One may read the EC50 as the midpoint of the concentration-response curve.
